These results are taken from patent US20110112158A1, “BENZISOXAZOLE ANALOGS AS GLYCOGEN SYNTHASE ACTIVATORS” (priority 2009, published 2011).

The test has as its system glycogen synthase. Kind of test: Glycogen Synthase (GS) Assay. The class given is biochemical. As to conditions: for EC50: compound concentration needed to give 50% maximum activation; for GS SC200: compound concentration needed to stimulate 200% of the enzyme activity. How it is done:
Twelve μl per well of substrate solution containing glycogen (4.32 mg/ml), 2.67 mM UDP-glucose, 21.6 mM phospho(enol)pyruvate and 2.7 mM NADH in 30 mM glycylglycine, pH 7.3 buffer was added into a polystyrene 384-well assay plate (BD Biosciences).
Compound solutions (8 μl/well) at various concentrations (0-300 μM) were added to the assay plate (columns 5-24). Compound solution contains 30 mM glycylglycine, pH 7.3, 40 mM KCl, 20 mM MgCl2, 9.2% DMSO, with (columns 15-24) or without (columns 5-14) 20 mM glucose 6-phosphate.
Enzyme solution (12 μl/well) containing glycogen synthase (16.88 μg/ml), pyruvate kinase (0.27 mg/ml), lactate dehydrogenase (0.27 mg/ml) in 50 mM Tris-HCl, pH 8.0, 27 mM DTT and bovine serum albumin (BSA, 0.2 mg/ml) was added to the assay plate (columns 3-24). As a blank control, enzyme solution without glycogen synthase was added into the top half wells of columns 1-2. To the bottom half wells of columns 1-2 were added a known activator, glucose 6-phosphate (at final concentration 5 mM) in addition to the enzyme solution. The reaction mixture was incubated at room temperature. The assay plate was then read for absorbance at 340 nm on an Envision reader every 3 minutes up to a total of 15 minutes.
The enzyme activity (with or without compound) was calculated by the reaction rate and represented by the optical density change (μOD) per minute. Percent stimulation of glycogen synthase activity by a compound at various concentrations was calculated by the following formula: […]
wherein Rs is the reaction rate of the enzyme in the presence of compound and Rt is the reaction rate of the enzyme in the absence of compound.
SC200 is defined as the compound concentration that is needed to stimulate 200% of the enzyme activity. EC50 is defined as the compound concentration that is needed to give 50% maximum activation.

Molecules are shown by their SMILES.

For `COc1cc(F)c(F)cc1-c1ccc(OCc2ccc3onc(N)c3c2)cc1` [Example 1, 5-(4′,5′-Difluoro-2′-methoxy-biphenyl-4-yloxymethyl)-benzo[d]isoxazol-3-ylamine], the EC50 is 1490 nM and the “GS SC200” value worked out at 0.688 µM.
On to `CNc1noc2ccc(COc3ccc(-c4cc(F)c(F)cc4OC)cc3)cc12` [Example 2], for which the midpoint of the response, the EC50, lay at 1970 nM and the “GS SC200” value amounted to 0.514 µM.
For `COc1cc(F)c(F)cc1-c1ccc(OCc2ccc3onc(N(C)CC(=O)O)c3c2)cc1` [Example 3], it took 302 nM to reach a half-maximal effect (EC50) and the “GS SC200” value amounted to 0.024 µM.
Regarding `COc1cc(F)c(F)cc1-c1ccc(OCc2ccc3onc(O)c3c2)cc1` [Example 4, 5-(4′,5′-Difluoro-2′-methoxy-biphenyl-4-yloxymethyl)-benzo[d]isoxazol-3-ol], the EC50 was found to be 172 nM and the “GS SC200” value worked out at 0.032 µM.
On to `COc1cc(F)c(F)cc1-c1ccc(OCc2ccc3onc(OCC(=O)O)c3c2)cc1` [Example 5, [5-(4′,5′-Difluoro-2′-methoxy-biphenyl-4-yloxymethyl)-benzo[d]isoxazol-3-yloxy]-acetic acid], for which the EC50 stood at 1350 nM and the “GS SC200” value turned out to be 0.492 µM.
For the compound `COc1cc(F)c(F)cc1-c1ccc(OCc2ccc3onc(OC(C)(C)C(=O)O)c3c2)cc1` [Example 6, 2-[5-(4′,5′-Difluoro-2′-methoxy-biphenyl-4-yloxymethyl)-benzo[d]isoxazol-3-yloxy]-2-methyl-propionic acid], the EC50 was 777 nM and the “GS SC200” value turned out to be 0.348 µM.
Taken in the same sequence, the figures for `COc1cc(F)c(F)cc1-c1ccc(OCc2ccc3onc(OC(C)C(=O)O)c3c2)cc1` (stereo not shown) [Example 7, 2-[5-(4′,5′-Difluoro-2′-methoxy-biphenyl-4-yloxymethyl)-benzo[d]isoxazol-3-yloxy]-propionic acid] were 662 nM and 0.218 µM.
The like results for `COc1cc(F)c(F)cc1-c1ccc(OCc2ccc3onc(OC(C(=O)O)c4ccccc4)c3c2)cc1` (stereo not shown) [Example 8, [5-(4′,5′-Difluoro-2′-methoxy-biphenyl-4-yloxymethyl)-benzo[d]isoxazol-3-yloxy]-phenyl-acetic acid] were, in that order, 1760 nM and 0.723 µM.
Taken in the same sequence, the figures for `COc1cc(F)c(F)cc1-c1ccc(OCc2ccc3onc(OCCC(=O)O)c3c2)cc1` [Example 9, 3-[5-(4′,5′-Difluoro-2′-methoxy-biphenyl-4-yloxymethyl)-benzo[d]isoxazol-3-yloxy]-propionic acid] were 1700 nM and 0.61 µM.
For `Oc1noc2c(COc3ccc(-c4cc(F)c(F)cc4F)cc3)cccc12` [Example 10, 7-(2′,4′,5′-Trifluoro-biphenyl-4-yl-oxymethyl)-benzo[d]isoxazol-3-ol], the concentration for a half-maximal effect (EC50) is 836 nM and the “GS SC200” value is 0.148 µM.
For `COc1cc(F)c(F)cc1-c1ccc(OCc2cccc3c(O)noc23)cc1` [Example 11, 7-(4′,5′-Difluoro-2′-methoxy-biphenyl-4-yloxymethyl)-benzo[d] isoxazol-3-ol], the midpoint of the response, the EC50, lay at 158 nM and the “GS SC200” value was 0.014 µM.
With `Oc1noc2c(COc3ccc(-c4cc(F)c(F)cc4Cl)cc3)cccc12` [Example 12, 7-(2′-Chloro-4′,5′-difluoro-biphenyl-4-yloxymethyl)-benzo[d]isoxazol-3-ol], the EC50 is 702 nM and the “GS SC200” value worked out at 0.406 µM.
Regarding `Cc1cc(F)c(F)cc1-c1ccc(OCc2cccc3c(O)noc23)cc1` [Example 13, 7-(4′,5′-Difluoro-2′-methyl-biphenyl-4-yloxymethyl)-benzo[d]isoxazol-3-ol], the EC50 is 792 nM and the “GS SC200” value came out at 0.523 µM.
On to `COCCN(CC(=O)O)c1noc2ccc(COc3ccc(-c4cc(F)c(F)cc4OC)cc3)cc12` [Example 14, [[5-(4′,5′-Difluoro-2′-methoxy-biphenyl-4-yloxymethyl)-benzo[d]isoxazol-3-yl]-(2-methoxy-ethyl)-amino]-acetic acid], for which a half-maximal effect (EC50) was put at 365 nM and the “GS SC200” value came to 0.098 µM.
Consider `COCCCN(CC(=O)O)c1noc2ccc(COc3ccc(-c4cc(F)c(F)cc4OC)cc3)cc12` [Example 15, [[5-(4′,5′-Difluoro-2′-methoxy-biphenyl-4-yloxymethyl)-benzo[d]isoxazol-3-yl]-(3-methoxy-propyl)-amino]-acetic acid], for which the concentration for a half-maximal effect (EC50) came to 514 nM and the “GS SC200” value is 0.169 µM.
For the compound `CCN(CC(=O)O)c1noc2ccc(COc3ccc(-c4cc(F)c(F)cc4OC)cc3)cc12` [Example 16, {[5-(4′,5′-Difluoro-2′-methoxy-biphenyl-4-yloxymethyl)-benzo[d]isoxazol-3-yl]-ethyl-amino}-acetic acid], the concentration giving a half-maximal response (EC50) is 631 nM and the “GS SC200” value is 2.18 µM.
Taken in the same sequence, the figures for `COc1cc(F)c(F)cc1-c1ccc(OCc2ccc3onc(N(CC(=O)O)CC4CC4)c3c2)cc1` [Example 17] were 1160 nM and 0.438 µM.
For the compound `COc1cc(F)c(F)cc1-c1ccc(OCc2ccc3onc(N(CC(=O)O)CC4CCOCC4)c3c2)cc1` [Example 18, [[5-(4′,5′-Difluoro-2′-methoxy-biphenyl-4-yloxymethyl)-benzo[d]isoxazol-3-yl]-(tetrahydro-pyran-4-ylmethyl)-amino]-acetic acid], it took 713 nM to reach a half-maximal effect (EC50) and the “GS SC200” value was 0.249 µM.
In the case of `COc1cc(F)c(F)cc1-c1ccc(OCc2cccc3c(N(C)CC(=O)O)noc23)cc1` [Example 19, {[7-(4′,5′-Difluoro-2′-methoxy-biphenyl-4-yloxymethyl)-benzo[d]isoxazol-3-yl]-methyl-amino}-acetic acid], the response was half-maximal at 4220 nM (EC50) and the “GS SC200” value is 1.57 µM.
For `Oc1noc2ccc(COc3ccc(-c4cc(F)c(F)cc4F)cc3)cc12` [Example 20, 5-(2′,4′,5′-Trifluoro-biphenyl-4-yloxymethyl)-benzo[d]isoxazol-3-ol], the response was half-maximal at 422 nM (EC50) and the “GS SC200” value turned out to be 0.247 µM.
